≈ marks a conversion by molar mass, not a printed value. Like-named read-outs stand apart in the source and are kept apart here.
Key:
Format in all cases: cell-based
[1] = test system: K. pneumoniae 4104; experiment: MIC against K. pneumoniae 4104; settings: K. pneumoniae 4104, KPC-3, TEM-1
Protocol: (§1) As shown, the foregoing composition was tested for minimum inhibitory concentration (MIC, μg/mL) against bacteria listed in Tables 2-3.

[2] = test system: K. pneumoniae 4105; experiment: MIC against K. pneumoniae 4105; settings: K. pneumoniae 4105, KPC-3, TEM-1, SHV-11
Protocol: as §1

[3] = test system: K. pneumoniae 4106; experiment: MIC against K. pneumoniae 4106; settings: K. pneumoniae 4106, KPC-3, TEM-1, SHV-12, SHV-141
Protocol: as §1

[4] = test system: K. pneumoniae 4107; experiment: MIC against K. pneumoniae 4107; settings: K. pneumoniae 4107, KPC-2, TEM-1, SHV-11
Protocol: as §1

[5] = test system: K. pneumoniae 4108; experiment: MIC against K. pneumoniae 4108; settings: K. pneumoniae 4108, KPC-3, TEM-166, SHV-12, SHV-141
Protocol: as §1

[6] = test system: K. pneumoniae 2689; experiment: MIC against K. pneumoniae 2689; settings: K. pneumoniae 2689, KPC-2
Protocol: as §1

[7] = test system: E. cloacae 2689; experiment: MIC against E. cloacae 2689; settings: Table 3, E. cloacae 2689, KPC-2
Protocol: as §1

[8] = test system: E. cloacae 2705; experiment: MIC against E. cloacae 2705; settings: Table 3, E. cloacae 2705, VIM-1, KPC-3type
Protocol: as §1

[9] = test system: E. cloacae 2706; experiment: MIC against E. cloacae 2706; settings: Table 3, E. cloacae 2706, VIM-1, KPC-3
Protocol: as §1

[10] = test system: E. cloacae 2709; experiment: MIC against E. cloacae 2709; settings: Table 3, E. cloacae 2709, KPC-3, VIM-1
Protocol: as §1

[11] = test system: E. cloacae 2710; experiment: MIC against E. cloacae 2710; settings: Table 3, E. cloacae 2710, KPC-3, VIM-1
Protocol: as §1

[12] = test system: E. coli 2666; experiment: MIC against E. coli 2666; settings: Table 3, E. coli 2666, KPC-2
Protocol: as §1

[13] = test system: E. coli 4103; experiment: MIC against E. coli 4103; settings: Table 3, E. coli 4103, KPC-2, TEM-1, CMY-type
Protocol: as §1

[14] = test system: K. pneumoniae 2690; experiment: MIC against K. pneumoniae 2690; settings: Table 3, K. pneumoniae 2690, KPC-2
Protocol: as §1

[15] = test system: K. pneumoniae 2711; experiment: MIC against K. pneumoniae 2711; settings: Table 3, K. pneumoniae 2711, KPC-3, VIM-1
Protocol: as §1

[16] = test system: K. pneumoniae 2712; experiment: MIC against K. pneumoniae 2712; settings: Table 3, K. pneumoniae 2712, KPC-3, VIM-1
Protocol: as §1

[17] = test system: K. pneumoniae 2713; experiment: MIC against K. pneumoniae 2713; settings: Table 3, K. pneumoniae 2713, KPC-3, VIM-1
Protocol: as §1

[18] = test system: K. pneumoniae 4088; experiment: MIC against K. pneumoniae 4088; settings: Table 3, K. pneumoniae 4088, KPC-3
Protocol: as §1

[19] = test system: P. aeruginosa 2686; experiment: MIC against P. aeruginosa 2686; settings: Table 3, P. aeruginosa 2686, KPC-2
Protocol: as §1

[20] = Klebsiella pneumoniae, 4104, Table 3, alone, read-out: MIC
[21] = Table 3, in combination with NXL-104
[22] = Klebsiella pneumoniae, 4105, Table 3, alone, read-out: MIC
[23] = Klebsiella pneumoniae, 4106, Table 3, alone, read-out: MIC
[24] = Klebsiella pneumoniae, 4107, Table 3, alone, read-out: MIC
[25] = Klebsiella pneumoniae, 4108, Table 3, alone, read-out: MIC
[26] = Klebsiella pneumoniae, 2689, Table 3, alone, read-out: MIC
[27] = Enterobacter cloacae, alone, read-out: MIC
[28] = Escherichia coli, alone, read-out: MIC
[29] = Klebsiella pneumoniae, alone, read-out: MIC
[30] = Pseudomonas aeruginosa, alone, read-out: MIC

| Compound | MIC [1, 20] [µg/mL] | MIC [1, 21] [µg/mL] | MIC [2, 22] [µg/mL] | MIC [2, 21] [µg/mL] | MIC [3, 23] [µg/mL] | MIC [3, 21] [µg/mL] | MIC [4, 24] [µg/mL] | MIC [4, 21] [µg/mL] | MIC [5, 25] [µg/mL] | MIC [5, 21] [µg/mL] | MIC [6, 26] [µg/mL] | MIC [6, 21] [µg/mL] | MIC [7, 27] [µg/mL] | MIC ([7]; in combination with NXL-104) [µg/mL] | MIC [8, 27] [µg/mL] | MIC ([8]; in combination with NXL-104) [µg/mL] | MIC [9, 27] [µg/mL] | MIC ([9]; in combination with NXL-104) [µg/mL] | MIC [10, 27] [µg/mL] | MIC ([10]; in combination with NXL-104) [µg/mL] | other results |
| --- | --- | --- | --- | --- | --- | --- | --- | --- | --- | --- | --- | --- | --- | --- | --- | --- | --- | --- | --- | --- | --- |
| CO/N=C(\C(=O)N[C@@H]1C(=O)N2C(C(=O)[O-])=C(C[n+]3ccc4c(ccn4Cc4cc(C(=N)Nc5ccccc5)cs4)c3)CS[C@H]12)c1nc(N)sc1Cl [Example 12, (6R,7R)-7-{[(2Z)-2-(2-Amino-5-chloro-1,3-thiazol-4-yl)-2-(methoxyimino)acetyl]amino}-8-oxo-3-[(1-{[4-(N-phenylcarbamimidoyl)thiophen-2-yl]methyl}-1H-pyrrolo[3,2-c]pyridin-5-ium-5-yl)methyl]-5-thia-1-azabicyclo[4.2.0]oct-2-ene-2-carboxylate] | 16 (≈ 21 µM) | 1 | 32 (≈ 42 µM) | 2 | 32 (≈ 42 µM) | 2 | 16 (≈ 21 µM) | 1 | 32 (≈ 42 µM) | 1 | 16 (≈ 21 µM) | 1 | 32 (≈ 42 µM) | 1 | > 32 | >32 | > 32 | >32 | 32 (≈ 42 µM) | 4 | MIC [11, 27]: > 32 µg/mL; MIC ([11]; in combination with NXL-104): >32 µg/mL; MIC [12, 28]: 16 µg/mL (≈ 21 µM); MIC ([12]; in combination with NXL-104): 1 µg/mL; MIC [13, 28]: > 32 µg/mL; MIC ([13]; in combination with NXL-104): 4 µg/mL; MIC [14, 29]: 8 µg/mL (≈ 10.5 µM); MIC ([14]; in combination with NXL-104): 1 µg/mL; MIC [15, 29]: 4 µg/mL (≈ 5.25 µM); MIC ([15]; in combination with NXL-104): 0.5 µg/mL; MIC [16, 29]: > 32 µg/mL; MIC ([16]; in combination with NXL-104): 4 µg/mL; MIC [17, 29]: > 32 µg/mL; MIC ([17]; in combination with NXL-104): 2 µg/mL; MIC [18, 29]: > 32 µg/mL; MIC ([18]; in combination with NXL-104): 2 µg/mL; MIC [19, 30]: 32 µg/mL (≈ 42 µM); MIC ([19]; in combination with NXL-104): 32 µg/mL |
| CC(C)(O/N=C(\C(=O)N[C@@H]1C(=O)N2C(C(=O)[O-])=C(C[n+]3ccc4n(Cc5ccc(C(=N)N)cc5)ccn43)CS[C@H]12)c1csc(N)n1)C(=O)O [Example 4, (6R,7R)-7-{[(2Z)-2-(2-Amino-1,3-thiazol-4-yl)-2-{[(2-carboxypropan-2-yl)oxy]imino}acetyl]amino}-3-{[1-(4-carbamimidoylbenzyl)-1H-imidazo[1,2-b]pyrazol-5-ium-5-yl]methyl}-8-oxo-5-thia-1-azabicyclo[4.2.0]oct-2-ene-2-carboxylate] | 16 (≈ 22.6 µM) | 1 | > 32 | 2 | 32 (≈ 45.3 µM) | 4 | 32 (≈ 45.3 µM) | 2 | > 32 | 2 | 16 (≈ 22.6 µM) | 1 | 4 (≈ 5.66 µM) | 0.5 | > 32 | >32 | > 32 | 32 | 8 (≈ 11.3 µM) | 4 | MIC [11, 27]: > 32 µg/mL; MIC ([11]; in combination with NXL-104): >32 µg/mL; MIC [12, 28]: 32 µg/mL (≈ 45.3 µM); MIC ([12]; in combination with NXL-104): 2 µg/mL; MIC [13, 28]: > 32 µg/mL; MIC ([13]; in combination with NXL-104): 8 µg/mL; MIC [14, 29]: 16 µg/mL (≈ 22.6 µM); MIC ([14]; in combination with NXL-104): 2 µg/mL; MIC [15, 29]: 8 µg/mL (≈ 11.3 µM); MIC ([15]; in combination with NXL-104): 1 µg/mL; MIC [16, 29]: > 32 µg/mL; MIC ([16]; in combination with NXL-104): 4 µg/mL; MIC [17, 29]: > 32 µg/mL; MIC ([17]; in combination with NXL-104): 2 µg/mL; MIC [18, 29]: > 32 µg/mL; MIC ([18]; in combination with NXL-104): 4 µg/mL; MIC [19, 30]: 32 µg/mL (≈ 45.3 µM); MIC ([19]; in combination with NXL-104): 8 µg/mL |
| CO/N=C(\C(=O)N[C@@H]1C(=O)N2C(C(=O)[O-])=C(C[n+]3ccc4c(ccn4Cc4cc(C(=N)Nc5nccs5)cs4)c3)CS[C@H]12)c1nc(N)sc1Cl [Example 14, (6R,7R)-7-{[(2Z)-2-(2-Amino-5-chloro-1,3-thiazol-4-yl)-2-(methoxyimino)acetyl]amino}-8-oxo-3-{[1-({4-[N-(1,3-thiazol-2-yl)carbamimidoyl]thiophen-2-yl}methyl)-1H-pyrrolo[3,2-c]pyridin-5-ium-5-yl]methyl}-5-thia-1-azabicyclo[4.2.0]oct-2-ene-2-carboxylate] | 32 (≈ 41.6 µM) | 1 | > 32 | 2 | > 32 | 4 | 16 (≈ 20.8 µM) | 2 | > 32 | 2 | 32 (≈ 41.6 µM) | 1 | 16 (≈ 20.8 µM) | 0.5 | > 32 | >32 | > 32 | 32 | 32 (≈ 41.6 µM) | 4 | MIC [11, 27]: > 32 µg/mL; MIC ([11]; in combination with NXL-104): >32 µg/mL; MIC [12, 28]: 32 µg/mL (≈ 41.6 µM); MIC ([12]; in combination with NXL-104): 1 µg/mL; MIC [13, 28]: > 32 µg/mL; MIC ([13]; in combination with NXL-104): 8 µg/mL; MIC [14, 29]: 32 µg/mL (≈ 41.6 µM); MIC ([14]; in combination with NXL-104): 1 µg/mL; MIC [15, 29]: 4 µg/mL (≈ 5.2 µM); MIC ([15]; in combination with NXL-104): 0.5 µg/mL; MIC [16, 29]: > 32 µg/mL; MIC ([16]; in combination with NXL-104): 4 µg/mL; MIC [17, 29]: > 32 µg/mL; MIC ([17]; in combination with NXL-104): 2 µg/mL; MIC [18, 29]: > 32 µg/mL; MIC ([18]; in combination with NXL-104): 4 µg/mL; MIC [19, 30]: > 32 µg/mL; MIC ([19]; in combination with NXL-104): 16 µg/mL |

From patent USRE48097E1, “Cephem compounds, their production and use” (priority 2015, dated 2020)
